# Data reported in PubChem BioAssay (NCI).
#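 Results reflect a 48-hour exposure of cells in 96-well plates to compound at five concentrations. TGI is the concentration that stops growth completely.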
# Tests used:
# Assay in all cases: DTP human tumour cell line panel, 48 h
# A549 NSCLC = tested on: A549 NSCLC
# SW-620 colon = tested on: SW-620 colon
# HT29 colon = tested on: HT29 colon
# OVCAR-3 ovarian = tested on: OVCAR-3 ovarian
# SK-MEL-28 melanoma = tested on: SK-MEL-28 melanoma
# T-47D breast = tested on: T-47D breast
# HS 578T breast = tested on: HS 578T breast
# OVCAR-8 ovarian = tested on: OVCAR-8 ovarian
# M14 melanoma = tested on: M14 melanoma
# RPMI-8226 leukemia = tested on: RPMI-8226 leukemia
# NCI-H226 lung = tested on: NCI-H226 lung
# BT-549 breast = tested on: BT-549 breast
# 786-0 renal = tested on: 786-0 renal
# MDA-MB-231 breast = tested on: MDA-MB-231 breast
# UACC-62 melanoma = tested on: UACC-62 melanoma
# SK-OV-3 ovarian = tested on: SK-OV-3 ovarian
# MDA-N = tested on: MDA-N
# OVCAR-4 ovarian = tested on: OVCAR-4 ovarian
# UACC-257 melanoma = tested on: UACC-257 melanoma
# MALME-3M melanoma = tested on: MALME-3M melanoma
# NCI-H23 lung = tested on: NCI-H23 lung
# K-562 leukemia = tested on: K-562 leukemia
# MOLT-4 leukemia = tested on: MOLT-4 leukemia
# SK-MEL-5 melanoma = tested on: SK-MEL-5 melanoma
# SF-295 CNS = tested on: SF-295 CNS
# SF-268 CNS = tested on: SF-268 CNS
# U251 CNS = tested on: U251 CNS
# EKVX NSCLC = tested on: EKVX NSCLC
# SN12C renal = tested on: SN12C renal
# NCI-H522 lung = tested on: NCI-H522 lung
# TK-10 renal = tested on: TK-10 renal
# KM12 colon = tested on: KM12 colon
# HOP-62 NSCLC = tested on: HOP-62 NSCLC
# COLO 205 colon = tested on: COLO 205 colon
# HCC-2998 colon = tested on: HCC-2998 colon
# HCT-116 colon = tested on: HCT-116 colon
# DU-145 prostate = tested on: DU-145 prostate
# CAKI-1 renal = tested on: CAKI-1 renal
# SNB-75 CNS = tested on: SNB-75 CNS
# IGROV1 ovarian = tested on: IGROV1 ovarian
# HCT-15 colon = tested on: HCT-15 colon
# NCI-H460 lung = tested on: NCI-H460 lung
# RXF 393 renal = tested on: RXF 393 renal
# NCI/ADR-RES ovarian = tested on: NCI/ADR-RES ovarian
# SK-MEL-2 melanoma = tested on: SK-MEL-2 melanoma
# A498 renal = tested on: A498 renal
# MDA-MB-435 = tested on: MDA-MB-435
# SF-539 CNS = tested on: SF-539 CNS
# LOX IMVI melanoma = tested on: LOX IMVI melanoma
# OVCAR-5 ovarian = tested on: OVCAR-5 ovarian
# PC-3 prostate = tested on: PC-3 prostate
# UO-31 renal = tested on: UO-31 renal
# HL-60(TB) leukemia = tested on: HL-60(TB) leukemia
# SNB-19 CNS = tested on: SNB-19 CNS
# CCRF-CEM leukemia = tested on: CCRF-CEM leukemia
# SR leukemia = tested on: SR leukemia
# ACHN renal = tested on: ACHN renal
compound,measurement,setting,value
CCOC(=O)c1nnsc1NN=C(C)C,TGI,A549 NSCLC,> 100 µM
same,TGI,SW-620 colon,> 100 µM
same,TGI,HT29 colon,> 100 µM
same,TGI,OVCAR-3 ovarian,> 100 µM
same,TGI,SK-MEL-28 melanoma,> 100 µM
same,TGI,T-47D breast,> 100 µM
same,TGI,HS 578T breast,> 100 µM
same,TGI,OVCAR-8 ovarian,> 100 µM
same,TGI,M14 melanoma,> 100 µM
same,TGI,RPMI-8226 leukemia,> 100 µM
same,TGI,NCI-H226 lung,> 100 µM
same,TGI,BT-549 breast,> 100 µM
same,TGI,786-0 renal,> 100 µM
same,TGI,MDA-MB-231 breast,> 100 µM
same,TGI,UACC-62 melanoma,> 100 µM
same,TGI,SK-OV-3 ovarian,> 100 µM
same,TGI,MDA-N,> 100 µM
same,TGI,OVCAR-4 ovarian,> 100 µM
same,TGI,UACC-257 melanoma,> 100 µM
same,TGI,MALME-3M melanoma,> 100 µM
same,TGI,NCI-H23 lung,> 100 µM
same,TGI,K-562 leukemia,> 100 µM
same,TGI,MOLT-4 leukemia,> 100 µM
same,TGI,SK-MEL-5 melanoma,> 100 µM
same,TGI,SF-295 CNS,> 100 µM
same,TGI,SF-268 CNS,> 100 µM
same,TGI,U251 CNS,> 100 µM
same,TGI,EKVX NSCLC,> 100 µM
same,TGI,SN12C renal,> 100 µM
same,TGI,NCI-H522 lung,> 100 µM
same,TGI,TK-10 renal,> 100 µM
same,TGI,KM12 colon,> 100 µM
same,TGI,HOP-62 NSCLC,> 100 µM
same,TGI,COLO 205 colon,> 100 µM
same,TGI,HCC-2998 colon,> 100 µM
same,TGI,HCT-116 colon,> 100 µM
same,TGI,DU-145 prostate,> 100 µM
same,TGI,CAKI-1 renal,> 100 µM
same,TGI,SNB-75 CNS,> 100 µM
same,TGI,IGROV1 ovarian,> 100 µM
same,TGI,HCT-15 colon,> 100 µM
same,TGI,NCI-H460 lung,> 100 µM
same,TGI,RXF 393 renal,> 100 µM
same,TGI,NCI/ADR-RES ovarian,> 100 µM
same,TGI,SK-MEL-2 melanoma,> 100 µM
same,TGI,A498 renal,> 100 µM
same,TGI,MDA-MB-435,> 100 µM
same,TGI,SF-539 CNS,> 100 µM
same,TGI,LOX IMVI melanoma,> 100 µM
same,TGI,OVCAR-5 ovarian,> 100 µM
same,TGI,PC-3 prostate,> 100 µM
same,TGI,UO-31 renal,> 100 µM
same,TGI,HL-60(TB) leukemia,> 100 µM
C(=NCCCN1CCN(CCCN=Cc2cccc3ccccc23)CC1)c1cccc2ccccc12,TGI,A549 NSCLC,> 100 µM
same,TGI,SW-620 colon,> 100 µM
same,TGI,HT29 colon,> 100 µM
same,TGI,OVCAR-3 ovarian,> 100 µM
same,TGI,SK-MEL-28 melanoma,> 100 µM
same,TGI,T-47D breast,> 100 µM
same,TGI,HS 578T breast,> 100 µM
same,TGI,OVCAR-8 ovarian,> 100 µM
same,TGI,M14 melanoma,> 100 µM
same,TGI,RPMI-8226 leukemia,> 100 µM
same,TGI,NCI-H226 lung,> 100 µM
same,TGI,BT-549 breast,90.8 µM
same,TGI,786-0 renal,> 100 µM
same,TGI,MDA-MB-231 breast,> 100 µM
same,TGI,UACC-62 melanoma,> 100 µM
same,TGI,SK-OV-3 ovarian,> 100 µM
same,TGI,MDA-N,> 100 µM
same,TGI,OVCAR-4 ovarian,> 100 µM
same,TGI,UACC-257 melanoma,> 100 µM
same,TGI,MALME-3M melanoma,> 100 µM
same,TGI,NCI-H23 lung,> 100 µM
same,TGI,K-562 leukemia,> 100 µM
same,TGI,SNB-19 CNS,> 100 µM
same,TGI,MOLT-4 leukemia,> 100 µM
same,TGI,CCRF-CEM leukemia,> 100 µM
same,TGI,SF-295 CNS,> 100 µM
same,TGI,SF-268 CNS,> 100 µM
same,TGI,U251 CNS,> 100 µM
same,TGI,EKVX NSCLC,> 100 µM
same,TGI,SN12C renal,> 100 µM
same,TGI,NCI-H522 lung,> 100 µM
same,TGI,TK-10 renal,> 100 µM
same,TGI,KM12 colon,> 100 µM
same,TGI,HOP-62 NSCLC,> 100 µM
same,TGI,COLO 205 colon,> 100 µM
same,TGI,HCC-2998 colon,> 100 µM
same,TGI,HCT-116 colon,> 100 µM
same,TGI,CAKI-1 renal,> 100 µM
same,TGI,SNB-75 CNS,> 100 µM
same,TGI,IGROV1 ovarian,> 100 µM
same,TGI,HCT-15 colon,> 100 µM
same,TGI,NCI-H460 lung,> 100 µM
same,TGI,RXF 393 renal,78.2 µM
same,TGI,NCI/ADR-RES ovarian,> 100 µM
same,TGI,SK-MEL-2 melanoma,> 100 µM
same,TGI,MDA-MB-435,96.8 µM
same,TGI,SF-539 CNS,> 100 µM
same,TGI,LOX IMVI melanoma,> 100 µM
same,TGI,SR leukemia,> 100 µM
same,TGI,OVCAR-5 ovarian,> 100 µM
same,TGI,ACHN renal,> 100 µM
same,TGI,PC-3 prostate,> 100 µM
same,TGI,UO-31 renal,> 100 µM
